Laboratory results reported in patent US20080076824A1, “Compounds That Inhibit Replication Of Human Immunodeficiency Virus” (priority 2004, published 2008).
pEC50: −log10 of the molar value. Residues, ends and D or L forms follow the SMILES beside them.

Tests used:
[1] = Conversion of [14C]G-NH2 to Metabolite X by sera of different animals; assay type: in vitro ADME
Protocol: Next, an evaluation of sera obtained from other animals was analyzed for their ability to convert G-NH2 to modified G-NH2. Serum obtained from pigs (PS), mice (MS), dogs (CS), cats (FS), horse (ES), and monkey (SS) was incubated with HPLC purified G-NH2 and at 15 minutes, 1 hour, 6 hours, and/or 24 hours an aliquot of the mixture was removed and analyzed by cation exchange HPLC, as described above. Approximately a 10% dilution of serum in PBS was used.
Approximately, 0.1 μCi [^14C]G-NH2 ([…]) is added to a reaction mixture containing 10% serum in phosphate-buffered saline (PBS) (pH 7.5) (total volume: 100 μl). The reaction was carried out for different time periods. Sera, used in the study were from human, murine (mouse and rat), avian (chicken), rabbit, simian, feline, canine, porcine, equine or bovine (cow) origin. At the completion of the time period for each reaction, approximately 200 μl cold methanol was added to stop the reaction and the samples were placed on ice for 10 minutes. Subsequently, the samples were subjected to centrifugation (5 min, 15000 rpm). The supernatants were then injected on a Cation Exchange Column (Whatman) (Partisphere-SCX) and G-NH2 and Metabolite X were separated on a gradient of ammonium phosphate buffer 5 mM pH 3.5 (Buffer A) and ammonium phosphate buffer 0.300 M pH 3.5 (Buffer B) [10 min A+6 min to 83% B+17% H2O) (C)+2 min C-+6 min to A)]. […]

[2] = Conversion of G-NH2 to Metabolite X in 10% pig serum with and without reducing agents; assay type: in vitro ADME; details: absence of GTT, NAC and DTT
Protocol: In another set of experiments, the conversion of GNH2 to modified glycinamide (Metabolite X) in pig serum (10%) was monitored over time in the presence and absence of differing concentrations (e.g., 40 mM, 10 mM, 4 mM) of reducing agents (glutathione (GTT), N-acetyl cysteine (NAC), and dithiothreitol (DTT)). […] See Han et al., Bull. Korean. Chem. Soc., 17, 659-661 (1996). In the absence of GTT, NAC and DTT, almost 100% coversion to Metabolite X was seen.

[3] = biological target: glycine oxidase from Bacillus subtilis (Bacillus subtilis, UniProt O31616)
[4] = Cytotoxicity / cell proliferation in CEM cells; details: human
CEM cells = assay: Cytotoxicity / cell proliferation in CEM cells

glycine oxidase from Bacillus subtilis, sequence (O31616 whole entry): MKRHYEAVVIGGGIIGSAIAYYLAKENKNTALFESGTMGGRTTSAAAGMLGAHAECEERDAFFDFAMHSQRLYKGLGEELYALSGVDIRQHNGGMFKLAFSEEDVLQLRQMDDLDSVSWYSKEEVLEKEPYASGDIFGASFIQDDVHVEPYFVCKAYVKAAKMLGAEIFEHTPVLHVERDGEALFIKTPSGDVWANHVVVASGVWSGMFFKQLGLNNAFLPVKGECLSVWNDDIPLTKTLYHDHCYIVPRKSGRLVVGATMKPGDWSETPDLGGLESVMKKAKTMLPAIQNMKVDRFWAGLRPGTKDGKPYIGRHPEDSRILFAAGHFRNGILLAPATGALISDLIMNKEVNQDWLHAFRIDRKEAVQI

Structure (SMILES) | conversion to modified glycinamide ([1]; human, mouse, rat, and avian sera) | conversion to Metabolite X ([1]; rabbit, simian, feline, canine, porcine, equine and bovine sera) | conversion to Metabolite X [2] | conversion of G-NH2 to Metabolite X [3] | pEC50 [4] | no cytotoxicity at concentrations as high as (CEM cells)
NCC(N)=O [G-NH2, glycinamide] | did not effectively catalyze | readily converted to Metabolite X | ~100% | unable to convert | – | –
NCC(=O)N1CCC[C@H]1C(=O)NCC(N)=O [GPG-NH2, glycylprolylglycinamide] (H-Gly-Pro-Gly-NH2) | – | – | – | – | < 2.70 | 1500 to 2000 µM
